Results published in patent US20230390315A1, “COMPOSITIONS AND METHODS FOR TREATING ISCHEMIC CONDITIONS” (The Regents of the University of California, priority 2020, published 2023).

Legend:
α-glucosidase = α-glucosidase activity assay; type: biochemical, Saccharomyces cerevisiae; settings: up to 2 mM
Experimental: a-mannosidase activity was measured using substrate p-nitrophenyl α-mannopyranoside (1 mM). Enzyme from Jack Bean ([…]) (final concentration of 0.077 U) was incubated at 37° C. in a final volume of 50 μl of 50 mM potassium phosphate buffer, pH 7.5. α-glucosidase was assayed with substrate p-nitrophenyl α-glucoside (7 mM). Enzyme from Saccharomyces cerevisiae-type 1 (Sigma, G5003) (final concentration of 0.1 U) was incubated at 37° C. in a final volume of 50 μl of PBS, pH 7.5. β-Glucosidase was assayed with substrate 4-nitrophenyl β-D-glucopyranoside (Roche). Enzyme from almond (Sigma, G0395) (final concentration of 0.002 U) was incubated at 37° C. in a final volume of 50 μl of PBS, pH 7.5 containing 1% SDS. The incubation was stopped by addition of an equal volume of acid-based stop solution (R&D systems, 895032). Enzymatic activity was measured at 405 nm. α-glucosidase from Saccharomyces cerevisiae type I ([…]) with p-nitrophenyl α-D-glucopyranoside (Sigma, N1377) as the substrate.

[1] = system: protein glycosylation in BCECs; assay: N-glycan, monosaccharide, sialic acid and O-glycan analysis of BCECs; type: cell-based, bovine
Experimental: As soon as BCECs reached about 80% confluency, they were washed twice with phosphate buffered saline (PBS, Sigma) and harvested by scraping. The cells were pelleted by centrifugation at 300 g for 3 mins and washed once with cold PBS. Cells were homogenized and total protein was measured. All subsequent analysis was based on known protein amount.
N-linked glycans were removed from glycoprotein samples using PNGase-F kit (New England BioLabs, P0705S). Briefly, 300 μg of protein sample was reconstituted in 180 μl UltraPure water. 20 μl of 10× denaturing buffer was added and boiled using 100° C. water bath for 14 mins. Samples were cooled down to room temperature and centrifuged at 2700 g for 1 min. Subsequently, 50 μl 10×NP-40 was added and samples were kept at room temperature for 30 mins with vortexing at 5 min interval, followed by adding 25 μL of 10×reaction buffer and mixing thoroughly. 5 μl PNGaseF (2500 U) was then added to the samples and mixed gently. Samples were incubated at 37° C. for 16 hrs. Released N-glycans were purified using solid phase extraction method. Briefly, N-glycans were purified by passing the reaction mixture sequentially over pre-conditioned Sep-Pak C18 1 cc cartridge (Waters) and HyperSep PGC ([…]) cartridge (25 mg, 1 ml Thermo Scientific). The cartridge was washed with 4 ml of water and the PGC alone was washed with additional 1 ml of water. N-glycans bound to PGC were eluted using 30% acetonitrile containing 0.1% TFA in water. Finally, purified N-glycans were lyophilized and labeled with 2-AB. Briefly, samples were dissolved in 10 μl solution of 0.44 M 2-AB (2-Amino benzamide) in 35% acetic acid in DMSO containing 1M sodium cyanoborohydride. The samples were incubated at 65° C. for 2.5 hrs. The 2-AB labeled glycans were purified using GlycoClean S cartridge (GLYKO) following their glycan clean-up protocol. Excess reagent was removed from the samples using Glycoclean S-cartridge (Prozyme) and labelled glycans were dried using SpeedVac and stored at −20° C. Profiling of 2-AB labeled glycans was obtained using Dionex CarboPac PA1 (4×250 mm) anion exchange column along with a guard column (4×50 mm) at flow rate of 1 ml/min. Glycans were separated in 100 mM sodium hydroxide with a sodium acetate gradient of 0-250 mM in 0-75 minutes. The data was collected using the Dionex ICS-3000 HPLC system with Ultimate 3000 fluorescence detector (Dionex) set at λex 330 nm at tem 420 nm with sensitivity 7. The data was processed using Chromeleon software (Thermo Scientific).
Monosaccharide composition analysis was done using HPAEC-PAD (Thermo-Dionex ICS3000) and nmole amount of each monosaccharide present in 25 μg of protein was calculated. Samples were hydrolyzed using 2 N trifluoroacetic acid (TFA) at 100° C. for 4 hrs. Followed by removal of acid using dry nitrogen flush. To ensure complete removal of acid, samples were co-evaporated twice with 100 μl of 50% isopropyl alcohol (IPA). Finally, the samples were dissolved in Milli-Q water and injected on HPAEC-PAD. Monosaccharide profile was done using Dionex CarboPac™ PA1 column (250 mm×4 mm; with 50 mm×4 mm guard column). […] All neutral and amino sugars were identified and quantified by comparing with authentic monosaccharide standard mixture consisting of L-fucose, D-galactosamine, D-glucosamine, D-galactose, D-glucose and D-mannose.
Mild acid hydrolysis was used to release sialic acid. […] Known amount of standard Neu5Ac was used to quantify amount of sialic acid in samples. […]

[2] = Cellular uptake of ManN in BCECs; type: in vitro ADME, bovine

## N[C@H](C=O)[C@@H](O)[C@H](O)[C@H](O)CO [ManN, 2-Amino-2-deoxy-D-mannose]
α-glucosidase
  effect on α-glucosidase: No effect
[1]
  fucose (8 hours), mannose (12 hours), galactose (24 hours) and Neu5Ac (8 and 24 hours) content vs untreated control: significant decrease
  incorporation of ManN in N-glycans: No incorporation of ManN was detected
[1]; 40 uM ManN
  Man-5 and Man-7 content: significant early phase accumulation
  Man-6, Man-8 and Man-9 in total oligomannose N-glycan content vs untreated control: significant time-dependent reduction
[1]; 40 uM ManN, MALDI-Tof
  O-glycosylation: overall decrease in O-glycosylation
[2]
  cell entry and accumulation: entered and accumulated inside the cells in a concentration-dependent manner
[2]; 400 uM ManN for 2 hours
  ManN detected in 1 mg cell lysate: 0.66 nmol
